This is an account of results in patent publication US11952346B2, “Modulators of mas-related G-protein receptor X2 and related products and methods” (Escient Pharmaceuticals, Inc., priority 2020, dated 2024).

Where only a bound is given, the exact number is not on record here.

The assay concerns the target T1, human MRGPRX2 (Homo sapiens, UniProt Q96LB1).
T1 construct: expressed in transfected cells
T1 sequence (Q96LB1 1-330): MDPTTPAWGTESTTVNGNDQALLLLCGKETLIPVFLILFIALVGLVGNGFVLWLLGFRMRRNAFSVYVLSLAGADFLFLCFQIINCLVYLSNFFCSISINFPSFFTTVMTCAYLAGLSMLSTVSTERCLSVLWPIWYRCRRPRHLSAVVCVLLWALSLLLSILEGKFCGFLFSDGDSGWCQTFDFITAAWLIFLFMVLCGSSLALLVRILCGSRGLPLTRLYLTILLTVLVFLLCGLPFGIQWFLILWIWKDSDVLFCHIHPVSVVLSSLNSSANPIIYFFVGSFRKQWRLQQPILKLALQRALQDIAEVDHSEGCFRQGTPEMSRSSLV
Put plainly: MRGPRX2 antagonist activity, IP-One HTRF assay in CHO cells expressing human MRGPRX2 versus Cortistatin-14. Conditions: CHO cells stably expressing human MRGPRX2; versus 0.3 uM Cortistatin-14 agonist; IP-1 HTRF readout; read-out: MRGPR2 Antagonist Activity. The class given is cell-based. The protocol:
CHO cells stably transfected to express human MRGPRX2 were maintained in an incubator at 37° C. with 5% CO2 and grown in F12 (HAM) media with 10% fetal bovine serum (FBS), 1% Glutamax, 1% penicillin/streptomycin, 800 μg/mL Geneticin (G418), and 300 μg/mL Hygromycin B. Cells were plated in a 384-well assay plate at 20,000 cells per well in 12 μL of Opti-MEM and kept in an incubator overnight. On the day of the assay, compounds solubilized at 10 mM in DMSO were added as a 10-point curve (30 uM final top concentration with 1:3 serial dilutions) using a Tecan D300E digital dispenser. Agonists were diluted in assay buffer (final concentrations of 5.7 mM Tris-HCl, 43 mM NaCl, 50 mM LiCI, pH=8) and 2 μL of the agonist Cortistatin-14 (CPC Scientific, catalog CORT-002) are added to each well. Final concentrations of agonists were […] Cortistatin-14. Final concentrations of DMSO were kept consistent across the plate. Plates were incubated in the dark for 1 hr at 37° C. and then for 1 hr at room temperature. IP-1 standards and HTRF detection reagents were added according to the IP-One—Gq Kit purchased from Cisbio (part number 621PAPEJ) and incubated in the dark for 1 hr at room temperature. The plate was read on a Molecular Devices SpectraMax iD5 plate reader. The HTRF ratio was calculated from the raw data and graphed using GraphPad Prism to calculate an IC50 value for each compound.
The activity ranges are denoted as follows: “+++++” denotes antagonist activity <100 nM; “++++” denotes antagonist activity between 100 and 500 nM; “+++” denotes activity between 501 and 1000 nM; “++” denotes activity between 1001 and 2500 nM; and “+” denotes activity >2500 nM.
(TR-FRET usually uses a lanthanide donor and a delayed reading to cut background.)
Turning to `COc1ccc(C(=O)N[C@@H]2CCC[C@H](Nc3cc(C(F)(F)F)nc(C(F)(F)F)c3)C2)cc1` [example 1, N-((1R,3S)-3-((2,6-bis(trifluoromethyl)pyridin-4-yl)amino)cyclohexyl)-4-methoxybenzamide], the IC50 was more than 2500 nM.

Turning to `CN(C)c1nc(N[C@H]2CC[C@@H](NC(=O)c3ccc(F)cc3)CC2)cc(C(F)(F)F)n1` [1-8], the IC50 was 501 to 1000 nM.

In the case of `O=C(N[C@@H]1CCC[C@H](Nc2cc(C(F)(F)F)nc(C(F)(F)F)c2)C1)c1ccccc1` [Example 2, N-((1R,3S)-3-((2,6-bis(trifluoromethyl)pyridin-4-yl)amino)cyclohexyl)benzamide], the IC50 was more than 2500 nM.

In the case of `Cc1cc(N[C@H]2CC[C@@H](NC(=O)c3ccc4cncn4c3)CC2)cc(C(F)(F)F)c1C#N` [5-9], the IC50 was less than 100 nM.

Take `CN1CCCc2cccc(C(=O)N[C@H]3CC[C@@H](Nc4cc(C(F)(F)F)nc(C(F)(F)F)c4)CC3)c21` [4-26]: the IC50 was 1000 to 2500 nM.

Consider `N#Cc1ccc(N[C@H]2CC[C@@H](NC(=O)c3cccc4[nH]ccc34)CC2)cc1C(F)(F)F` [1-12], for which the IC50 is less than 100 nM.

On to `O=C1Nc2c(C(=O)N[C@H]3CC[C@@H](Nc4cc(C(F)(F)F)nc(C(F)(F)F)c4)CC3)cccc2C1=O` [4-7], for which the IC50 was in the range of 1000 to 2500 nM.

Consider `Cc1cc(C)n(-c2ccc(C(=O)N[C@H]3CC[C@@H](Nc4cc(C(F)(F)F)nc(C(F)(F)F)c4)CC3)cc2)n1` [4-24], for which the IC50 was in the range of 501 to 1000 nM.

For `O=C(N[C@H]1CC[C@@H](Nc2cc(C(F)(F)F)nc(C(F)(F)F)c2)CC1)c1ccc2c(c1)CCCC2` [4-42], the IC50 was 501 to 1000 nM.

As to `COc1ccc(C(=O)NC2CCC(Nc3ccc(C#N)c(C(F)(F)F)c3)CC2)cc1` (stereo not shown) [Example 4, N-[4-[4-cyano-3-(trifluoromethyl)anilino]cyclohexyl]-4-methoxy-benzamide], the IC50 lay in the range of 100 to 500 nM.

As to `CN1CCC(C(=O)N[C@H]2CC[C@@H](Nc3cc(C(F)(F)F)nc(C(F)(F)F)c3)CC2)C1` (stereo partly shown) [4-40], the IC50 lay in the range of 1000 to 2500 nM.

Turning to `CNC(=O)c1ccc(C(=O)N[C@H]2CC[C@@H](Nc3ccc(C#N)c(C(F)(F)F)c3)CC2)cc1` [4-65], the IC50 is less than 100 nM.

Regarding `CC(C)C(=O)Nc1cccc(C(=O)N[C@H]2CC[C@@H](Nc3cc(C(F)(F)F)nc(C(F)(F)F)c3)CC2)c1` [4-16], the IC50 lay in the range of 501 to 1000 nM.

In the case of `O=C(N[C@H]1CC[C@@H](Nc2cc(C(F)(F)F)nc(C(F)(F)F)c2)CC1)c1ccc(N2CCS(=O)(=O)CC2)cc1` [4-38], the IC50 lay in the range of 100 to 500 nM.

`CN(C)c1cccc(C(=O)N[C@H]2CC[C@@H](Nc3cc(C(F)(F)F)nc(C(F)(F)F)c3)CC2)c1` [Example 15, N-(1S,4S)-[4-[[2,6-bis(trifluoromethyl)-4-pyridyl]amino]cyclohexyl]-3-(dimethylamino)benzamide]: the IC50 was in the range of 100 to 500 nM.

In the case of `N=C(N)Nc1ccc(C(=O)N[C@H]2CC[C@@H](Nc3cc(C(F)(F)F)nc(C(F)(F)F)c3)CC2)cc1` (single isomer, unassigned) [4-55], the IC50 was less than 100 nM.

Take `N=C(N)Nc1ccc(C(=O)N[C@H]2CC[C@@H](Nc3cc(C(F)(F)F)nc(C(F)(F)F)c3)CC2)cc1` [4-20]: the IC50 was 501 to 1000 nM.

In the case of `COc1ccc(C(=O)N[C@H]2CC[C@@H](Nc3cc(C(F)(F)F)cc(C(F)(F)F)c3)CC2)cc1` [Example 14, N-((1S,4S)-4-((3,5-bis(trifluoromethyl)phenyl)amino)cyclohexyl)-4-methoxybenzamide], the IC50 was more than 2500 nM.

Take `Cc1cn(-c2ccc(C(=O)N[C@H]3CC[C@@H](Nc4ccc(C#N)c(C(F)(F)F)c4)CC3)cc2)cn1` [4-51]: the IC50 was less than 100 nM.
